From US20100063065A1 (Inpharmatica Limited, priority 2005, published 2010)

What follows are molecules tested against T1, PPARδ (Homo sapiens, UniProt Q03181) (assay: Transactivation assay (PPARδ GAL4 assay) in transiently transfected HEK293 cells). Conditions: luciferase reporter, Table 1.
T1 construct: fused to amino acids 147-441 of PPARδ downstream of CMV promoter; expressed in transfected cells; host or cells: HEK293 cells, transiently transfected with pFACMV-PPARδ using Fugene
T1 sequence (Q03181 147-441): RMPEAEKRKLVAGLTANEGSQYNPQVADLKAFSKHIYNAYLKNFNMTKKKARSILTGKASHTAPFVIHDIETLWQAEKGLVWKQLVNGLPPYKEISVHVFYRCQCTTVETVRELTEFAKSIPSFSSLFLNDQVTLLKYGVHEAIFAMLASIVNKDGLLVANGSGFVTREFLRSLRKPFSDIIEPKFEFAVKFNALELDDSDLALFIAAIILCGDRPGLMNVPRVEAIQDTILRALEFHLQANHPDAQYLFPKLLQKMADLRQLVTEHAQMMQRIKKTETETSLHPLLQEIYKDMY
Format: cell-based
Procedure: Compounds were screened for their functional potency in transiently transfected HEK293 cells for their ability to activate PPAR subtypes. Cells were cultured in DMEM (Invitrogen) supplemented with 10% foetal calf serum, glutamine, penicillin and streptomycin and plated at 10 000 cells/well of a 96-well solid white plate and incubated at 37° C./5% CO2 for 24 hours. Media was removed and the cells washed with PBS. Cells were then transiently transfected using Fugene (Roche) with 50 ng pFACMV-PPARδ (plasmid encoding amino acids 1-147 of the GAL4 DNA binding domain, fused to amino acids 147-441 of PPARδ downstream of CMV promoter) and 250 ng pFR-Luc (reporter plasmid containing 5×GAL4 response elements upstream of a luciferase gene), using a ratio of 3:1 Fugene:DNA. 100 μl of this transfection mixture in DMEM (without foetal calf serum) was added to each well, and the incubation continued for a further 24 hours. The cells are then again washed with PBS prior to the addition of 100 μl reduced serum medium (OptiMEM; Invitrogen). Compounds were added (10 μl in 2% DMSO in OptiMEM) to achieve final concentrations between 0-30 μM. The cells were then returned to the incubator for a further 24 hours. 100 μl of luciferase reagent (Bright Glo, Promega) was added directly to each well, and the luminescence determined using a suitable luminometer.
To measure the selectivity of compounds, their ability to transactivate GAL4 fusions of PPARα LBD and PPARγ LBD was determined. The activity of compounds was expressed as a percentage relative to control compounds: PPARγ rosiglitazone (BRL 49653), PPARδ GW501516 (11) or PPARα KCL1999000269 (12). EC50 values were calculated by fitting of the data to a sigmoidal dose response curve.

Row | EC50 | Structure (SMILES)
1 | < 0.1 µM | CCc1cc(C(=O)c2ccc(OC(F)(F)F)cc2)c(NC(=O)CN[C@@H](C(=O)O)C(C)C)s1 (single isomer, unassigned) [Example 75, 2-({[5-Ethyl-3-(4-trifluoromethoxy-benzoyl)-thiophen-2-ylcarbamoyl]-methyl}-amino)-3-methyl-butyric acid]
2 | < 0.1 µM | CCc1cc(C(=O)c2ccc(OC(F)(F)F)cc2)c(NC(=O)CSCC(=O)O)s1 [Example 1, {[5-Ethyl-3-(4-trifluoromethoxy-benzoyl)-thiophen-2-ylcarbamoyl]-methylsulfanyl}-acetic acid]
3 | < 0.1 µM | CCc1cc(C(=O)c2ccc(OC(F)(F)F)cc2)c(NC(=O)CSC(C)(C)C(=O)O)s1 [Example 2, 2-{[5-Ethyl-3-(4-trifluoromethoxy-benzoyl)-thiophen-2-ylcarbamoyl]-methylsulfanyl}-2-methyl-propionic acid]
4 | 0.1 to 1 µM | CCc1cc(C(=O)c2ccc(OC(F)(F)F)cc2)c(NC(=O)CC(C)(C)CC(=O)O)s1 [Example 3, 4-[5-Ethyl-3-(4-trifluoromethoxy-benzoyl)-thiophen-2-ylcarbamoyl]-3,3-dimethyl-butylic acid]
5 | 0.1 to 1 µM | CCc1cc(C(=O)c2ccc(OC(F)(F)F)cc2)c(NC(=O)CC2(CC(=O)O)CCCC2)s1 [Example 4, (1-{[5-Ethyl-3-(4-trifluoromethoxy-benzoyl)-thiophen-2-ylcarbamoyl]-methyl}-cyclopentyl)-acetic acid]
6 | 0.1 to 1 µM | CCc1cc(C(=O)c2ccc(OC)cc2)c(NC(=O)CSC(C)(C)C(=O)O)s1 [Example 5, 2-{[5-Ethyl-3-(4-methoxy-benzoyl)-thiophen-2-ylcarbamoyl]-methylsulfanyl}-2-methyl-propionic acid]
7 | 1 to 30 µM | CCc1cc(C(=O)c2ccc(OC)cc2)c(NC(=O)CC2(CC(=O)O)CCCC2)s1 [Example 6, (1-{[5-Ethyl-3-(4-methoxy-benzoyl)-thiophen-2-ylcarbamoyl]-methyl}-cyclopentyl)-acetic acid]
8 | 1 to 30 µM | CCc1cc(C(=O)c2ccc(OC)cc2)c(NC(=O)CCCC(=O)O)s1 [Example 7, 4-[5-Ethyl-3-(4-methoxy-benzoyl)-thiophen-2-ylcarbamoyl]-butyric acid]
9 | 0.1 to 1 µM | CCc1cc(C(=O)c2ccc(C)cc2)c(NC(=O)CSCC(=O)O)s1 [Example 8, {[5-Ethyl-3-(4-methyl-benzoyl)-thiophen-2-ylcarbamoyl]-methylsulfanyl}-acetic acid]
10 | 0.1 to 1 µM | CCc1ccc(C(=O)c2cc(CC)sc2NC(=O)CSCC(=O)O)cc1 [Example 9, {[5-Ethyl-3-(4-ethyl-benzoyl)-thiophen-2-ylcarbamoyl]-methylsulfanyl}-acetic acid]
11 | 0.1 to 1 µM | CCc1ccc(C(=O)c2cc(CC)sc2NC(=O)CSC(C)(C)C(=O)O)cc1 [Example 10, 2-{[5-Ethyl-3-(4-ethyl-benzoyl)-thiophen-2-ylcarbamoyl]-methylsulfanyl}-2-methyl-propionic acid]
12 | 1 to 30 µM | CCc1ccc(C(=O)c2cc(CC)sc2NC(=O)CC2(CC(=O)O)CCCC2)cc1 [Example 11, (1-{[5-Ethyl-3-(4-ethyl-benzoyl)-thiophen-2-ylcarbamoyl]-methyl}-cyclopentyl)-acetic acid]
13 | 0.1 to 1 µM | CCc1cc(C(=O)c2ccc(Oc3ccccc3)cc2)c(NC(=O)CSCC(=O)O)s1 [Example 12, {[5-Ethyl-3-(4-phenoxy-benzoyl)-thiophen-2-ylcarbamoyl]-methylsulfanyl}-acetic acid]
14 | 1 to 30 µM | CCc1cc(C(=O)c2ccc(Oc3ccccc3)cc2)c(NC(=O)CC(C)(C)CC(=O)O)s1 [Example 13, 4-[5-Ethyl-3-(4-phenoxy-benzoyl)-thiophen-2-ylcarbamoyl]-3,3-dimethyl-butyric acid]
15 | 1 to 30 µM | CCc1cc(C(=O)c2ccccc2)c(NC(=O)CSCC(=O)O)s1 [Example 14, [(3-Benzoyl-5-ethyl-thiophen-2-ylcarbamoyl)-methylsulfanyl]-acetic acid]
16 | 1 to 30 µM | CCc1cc(C(=O)c2ccccc2)c(NC(=O)CSC(C)(C)C(=O)O)s1 [Example 15, 2-[(3-Benzoyl-5-ethyl-thiophen-2-ylcarbamoyl)-methylsulfanyl]-2-methyl-propionic acid]
17 | 1 to 30 µM | CCc1cc(C(=O)c2ccccc2)c(NC(=O)CC(C)(C)CC(=O)O)s1 [Example 16, 4-(3-Benzoyl-5-ethyl-thiophen-2-ylcarbamoyl)-3,3-dimethyl-butyric acid]
18 | 1 to 30 µM | CCc1cc(C(=O)c2ccccc2)c(NC(=O)CC2(CC(=O)O)CCCC2)s1 [Example 17, {1-[(3-Benzoyl-5-ethyl-thiophen-2-ylcarbamoyl)-methyl]-cyclopentyl}-acetic acid]
19 | 1 to 30 µM | CCc1cc(C(=O)c2ccc(F)cc2)c(NC(=O)CSCC(=O)O)s1 [Example 18, {[5-Ethyl-3-(4-fluoro-benzoyl)-thiophen-2-ylcarbamoyl]-methylsulfanyl}-acetic acid]
20 | 0.1 to 1 µM | CCc1cc(C(=O)c2ccc(F)cc2)c(NC(=O)CSC(C)(C)C(=O)O)s1 [Example 19, 2-{[5-Ethyl-3-(4-fluoro-benzoyl)-thiophen-2-ylcarbamoyl]-methylsulfanyl}-2-methyl-propionic acid]
21 | 1 to 30 µM | CCc1cc(C(=O)c2ccc(F)cc2)c(NC(=O)CC(C)(C)CC(=O)O)s1 [Example 20, 4-[5-Ethyl-3-(4-fluoro-benzoyl)-thiophen-2-ylcarbamoyl]-3,3-dimethyl-butyric acid]
22 | 1 to 30 µM | CCc1cc(C(=O)c2ccc(F)cc2)c(NC(=O)CC2(CC(=O)O)CCCC2)s1 [Example 21, (1-{[5-Ethyl-3-(4-fluoro-benzoyl)-thiophen-2-ylcarbamoyl]-methyl}-cyclopentyl)-acetic acid]
23 | < 0.1 µM | CCc1cc(C(=O)c2ccc(Br)cc2)c(NC(=O)CSCC(=O)O)s1 [Example 22, {[3-(4-Bromo-benzoyl)-5-ethyl-thiophen-2-ylcarbamoyl]-methylsulfanyl}-acetic acid]
24 | 0.1 to 1 µM | CCc1cc(C(=O)c2ccc(Cl)cc2)c(NC(=O)CSCC(=O)O)s1 [Example 23, {[3-(4-Chloro-benzoyl)-5-ethyl-thiophen-2-ylcarbamoyl]-methylsulfanyl}-acetic acid]
25 | 0.1 to 1 µM | CCc1cc(C(=O)c2ccc(Cl)cc2)c(NC(=O)CSC(C)(C)C(=O)O)s1 [Example 24, 2-{[3-(4-Chloro-benzoyl)-5-ethyl-thiophen-2-ylcarbamoyl]-methylsulfanyl}-2-methyl-propionic acid]
26 | 1 to 30 µM | CCc1cc(C(=O)c2ccc(Cl)cc2)c(NC(=O)CC(C)(C)CC(=O)O)s1 [Example 25, 4-[3-(4-Chloro-benzoyl)-5-ethyl-thiophen-2-ylcarbamoyl]-3,3-dimethyl-butyric acid]
27 | 1 to 30 µM | CCc1cc(C(=O)c2ccc(Cl)cc2)c(NC(=O)CC2(CC(=O)O)CCCC2)s1 [Example 26, (1-{[3-(4-Chloro-benzoyl)-5-ethyl-thiophen-2-ylcarbamoyl]-methyl}-cyclopentyl)-acetic acid]
28 | 0.1 to 1 µM | CCc1cc(C(=O)c2cccc(Cl)c2)c(NC(=O)CSCC(=O)O)s1 [Example 27, {[3-(3-Chloro-benzoyl)-5-ethyl-thiophen-2-ylcarbamoyl]-methylsulfanyl}-acetic acid]
29 | < 0.1 µM | CCc1cc(C(=O)c2ccc(Cl)c(Cl)c2)c(NC(=O)CSCC(=O)O)s1 [Example 28, {[3-(3,4-Dichloro-benzoyl)-5-ethyl-thiophen-2-ylcarbamoyl]-methylsulfanyl}-acetic acid]

Same assay, conditions: luciferase reporter, Table 2

Row | EC50 | Structure (SMILES)
30 | 0.1 to 1 µM | CCc1cc(C(=O)c2ccc(OC(F)(F)F)cc2)c(NC(=O)CN2CC(C)CC2C(=O)O)s1 (mixture of isomers) [Example 180, 1-{[5-Ethyl-3-(4-trifluoromethoxy-benzoyl)-thiophen-2-ylcarbamoyl]-methyl}-4-methyl-pyrrolidine-2-carboxylic acid]
31 | 1 to 30 µM | CCc1cc(C(=O)c2ccc(OC(F)(F)F)cc2)c(NC(=O)CN2[C@H](C)CC[C@@H]2C(=O)O)s1 (relative stereo) [Example 178, (2R*,5R*)-1-{[5-Ethyl-3-(4-trifluoromethoxy-benzoyl)-thiophen-2-ylcarbamoyl]-methyl}-5-methyl-pyrrolidine-2-carboxylic acid]
32 | < 0.1 µM | CCc1cc(C(=O)c2ccc(OC(F)(F)F)cc2)c(NC(=O)CN2[C@@H](C(=O)O)CC[C@@H]2C)s1 (relative stereo) [Example 179, (2R*,5S*)-1-{[5-Ethyl-3-(4-trifluoromethoxy-benzoyl)-thiophen-2-ylcarbamoyl]-methyl}-5-methyl-pyrrolidine-2-carboxylic acid]
